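Tested at 5 concentrations; 48 h exposure; 96-well plates; endpoints linearly interpolated, else capped at highest concentration. At the TGI there is no net growth.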
Legend:
Assay in all cases: DTP human tumour cell line panel, 48 h
786-0 renal = system: 786-0 renal
A498 renal = system: A498 renal
A549 NSCLC = system: A549 NSCLC
ACHN renal = system: ACHN renal
BT-549 breast = system: BT-549 breast
CAKI-1 renal = system: CAKI-1 renal
CCRF-CEM leukemia = system: CCRF-CEM leukemia
COLO 205 colon = system: COLO 205 colon
DU-145 prostate = system: DU-145 prostate
EKVX NSCLC = system: EKVX NSCLC
HCC-2998 colon = system: HCC-2998 colon
HCT-116 colon = system: HCT-116 colon
HCT-15 colon = system: HCT-15 colon
HL-60(TB) leukemia = system: HL-60(TB) leukemia
HOP-62 NSCLC = system: HOP-62 NSCLC
HOP-92 NSCLC = system: HOP-92 NSCLC
HS 578T breast = system: HS 578T breast
HT29 colon = system: HT29 colon
K-562 leukemia = system: K-562 leukemia
KM12 colon = system: KM12 colon
LOX IMVI melanoma = system: LOX IMVI melanoma
MALME-3M melanoma = system: MALME-3M melanoma
MDA-MB-231 breast = system: MDA-MB-231 breast
MDA-N = system: MDA-N
NCI-H226 lung = system: NCI-H226 lung
NCI-H23 lung = system: NCI-H23 lung
NCI-H460 lung = system: NCI-H460 lung
NCI-H522 lung = system: NCI-H522 lung
NCI/ADR-RES ovarian = system: NCI/ADR-RES ovarian
OVCAR-3 ovarian = system: OVCAR-3 ovarian
OVCAR-4 ovarian = system: OVCAR-4 ovarian
OVCAR-8 ovarian = system: OVCAR-8 ovarian
PC-3 prostate = system: PC-3 prostate
RPMI-8226 leukemia = system: RPMI-8226 leukemia
RXF 393 renal = system: RXF 393 renal
SF-268 CNS = system: SF-268 CNS
SF-295 CNS = system: SF-295 CNS
SF-539 CNS = system: SF-539 CNS
SK-MEL-28 melanoma = system: SK-MEL-28 melanoma
SK-MEL-5 melanoma = system: SK-MEL-5 melanoma
SK-OV-3 ovarian = system: SK-OV-3 ovarian
SN12C renal = system: SN12C renal
SNB-75 CNS = system: SNB-75 CNS
SR leukemia = system: SR leukemia
SW-620 colon = system: SW-620 colon
T-47D breast = system: T-47D breast
TK-10 renal = system: TK-10 renal
UACC-257 melanoma = system: UACC-257 melanoma
UACC-62 melanoma = system: UACC-62 melanoma
UO-31 renal = system: UO-31 renal

`OCc1ccc2c(c1)CC1(Cc3ccccc3C1)C2` gave a TGI (786-0 renal) of 29.6 µM, a TGI (A498 renal) greater than 100 µM and a TGI (A549 NSCLC) of 71.2 µM. The TGI (ACHN renal) was 57.7 µM, the TGI (BT-549 breast) was 24.1 µM and the TGI (CAKI-1 renal) was 50.5 µM. It also gave a TGI (CCRF-CEM leukemia) of 54.4 µM, a TGI (COLO 205 colon) of 31.2 µM and a TGI (DU-145 prostate) greater than 100 µM. It also gave a TGI (EKVX NSCLC) of 80.2 µM, a TGI (HCC-2998 colon) greater than 100 µM and a TGI (HCT-116 colon) of 35.5 µM. The TGI (HCT-15 colon) was greater than 100 µM, the TGI (HL-60(TB) leukemia) was 67.4 µM and the TGI (HOP-62 NSCLC) was greater than 100 µM. The TGI (HOP-92 NSCLC) was 38 µM, the TGI (HS 578T breast) was 32.9 µM and the TGI (HT29 colon) was 33.6 µM. For the same molecule, the TGI (K-562 leukemia) was 38.1 µM, the TGI (KM12 colon) was 57.3 µM and the TGI (LOX IMVI melanoma) was 29.7 µM. It also gave a TGI (MALME-3M melanoma) of 29.4 µM, a TGI (MDA-MB-231 breast) of 27.4 µM and a TGI (MDA-N) of 20 µM. The TGI (NCI-H226 lung) was greater than 100 µM, the TGI (NCI-H23 lung) was 82.3 µM and the TGI (NCI-H460 lung) was 44.6 µM. For the same molecule, the TGI (NCI-H522 lung) was 72.1 µM, the TGI (NCI/ADR-RES ovarian) was 59.5 µM and the TGI (OVCAR-3 ovarian) was 68.5 µM. It also gave a TGI (OVCAR-4 ovarian) greater than 100 µM, a TGI (OVCAR-8 ovarian) greater than 100 µM and a TGI (PC-3 prostate) of 33.5 µM. The TGI (RPMI-8226 leukemia) was 46.4 µM, the TGI (RXF 393 renal) was 36.2 µM and the TGI (SF-268 CNS) was 40.9 µM. For the same molecule, the TGI (SF-295 CNS) was 40.6 µM, the TGI (SF-539 CNS) was 44.3 µM and the TGI (SK-MEL-28 melanoma) was 49.6 µM. It also gave a TGI (SK-MEL-5 melanoma) of 23.6 µM, a TGI (SK-OV-3 ovarian) of 84.8 µM and a TGI (SN12C renal) of 45.8 µM. For the same molecule, the TGI (SNB-75 CNS) was 30.2 µM, the TGI (SR leukemia) was greater than 100 µM and the TGI (SW-620 colon) was 39 µM. It also gave a TGI (T-47D breast) greater than 100 µM, a TGI (TK-10 renal) of 61.5 µM and a TGI (UACC-257 melanoma) of 43 µM. The TGI (UACC-62 melanoma) was 60.2 µM and the TGI (UO-31 renal) was 29.1 µM.

— PubChem BioAssay (NCI)
